Here are results for 17 compounds from patent US20110319424A1, “NAPHTHYRIDIN-2(1H) -ONE COMPOUNDS USEFUL AS ANTIBACTERIALS” (priority 2008, published 2011).

Each structure is given as a SMILES string. In brackets after ≈: the same amount, converted by molar mass.

For orientation: MIC means the least concentration at which growth counts as inhibited.

The test system of the first test is Mycobacterium tuberculosis H37Rv. Kind of test: Mycobacterium tuberculosis H37Rv inhibition assay (MIC, resazurin fluorescence). The conditions noted are these: ATCC 25618 / H37Rv, 144 h, H37Rv strain (ATCC25618), Middlebrook 7H9, six days at 37° C. then resazurin 48 hours. The class given is cell-based. In general terms: The colour change of resazurin is a common sign of viable cells or microbes.
Turning to `O=c1ccc2ncc(F)cc2n1CCN1CCC(NCc2ccc(F)cc2)CC1` [Example 14, 7-Fluoro-1-[2-(4-{[(4-fluorophenyl)methyl]amino}-1-piperidinyl)ethyl]-1,5-naphthyridin-2(1H)-one], the MIC is not above 2.4 µg/mL.
`O=c1ccc2ncccc2n1CCN1CCC(NCc2cccc(Cl)c2)CC1` [Example 57, 1-[2-(4-{[(3-chlorophenyl)methyl]amino}-1-piperidinyl)ethyl]-1,5-naphthyridin-2(1H)-one]: the minimal inhibitory concentration (MIC) is not above 2.4 µg/mL.
On the same count and under the same terms, the same measure for `O=c1ccc2ncccc2n1CCN1CCC(NCc2cc(Br)cs2)CC1` [Example 81, 1-[2-(4-{[(4-bromo-2-thienyl)methyl]amino}-1-piperidinyl)ethyl]-1,5-naphthyridin-2(1H)-one]: not above 2.4 µg/mL; for `O=c1ccc2ncc(F)cc2n1CCN1CCC(NCc2cccc(Cl)c2)CC1` [Example 103, 1-[2-(4-{[(3-chlorophenyl)methyl]amino}-1-piperidinyl)ethyl]-7-fluoro-1,5-naphthyridin-2(1H)-one]: not above 2.4 µg/mL; for `COc1cnc2ccc(=O)n(CCN3CCC(NCc4cncc(Cl)n4)CC3)c2c1` [Example 111, 1-[2-(4-{[(6-chloro-2-pyrazinyl)methyl]amino}-1-piperidinyl)ethyl]-7-(methyloxy)-1,5-naphthyridin-2(1H)-one]: not above 2.4 µg/mL.
Same read-out and setting: the same measure for `COc1cnc2ccc(=O)n(CCN3CCC(NCc4ccnc(C(F)(F)F)n4)CC3)c2c1` [Example 113, 7-(methyloxy)-1-{2-[4-({[2-(trifluoromethyl)-4-pyrimidinyl]methyl}amino)-1-piperidinyl]ethyl}-1,5-naphthyridin-2(1H)-one]: not above 2.4 µg/mL; for `COc1cnc2ccc(=O)n(CCN3CCC(NCc4cc(C)cc(C)n4)CC3)c2c1` [Example 114, 1-[2-(4-{[(4,6-dimethyl-2-pyridinyl)methyl]amino}-1-piperidinyl)ethyl]-7-(methyloxy)-1,5-naphthyridin-2(1H)-one]: not above 2.4 µg/mL; for `COc1cnc2ccc(=O)n(CCN3CCC(NCc4ccc(Cl)cn4)CC3)c2c1` [Example 116]: not above 2.4 µg/mL.
On the same count and under the same terms, the same measure for `CC(C)(C)c1ccc(CNC2CCN(CCn3c(=O)ccc4ncc(F)cc43)CC2)cc1` [Example 121, 1-{2-[4-({[4-(1,1-dimethylethyl)phenyl]methyl}amino)-1-piperidinyl]ethyl}-7-fluoro-1,5-naphthyridin-2(1H)-one]: not above 2.4 µg/mL.
Compound `Cc1cc(CNC2CCN(CCn3c(=O)ccc4ncc(F)cc43)CC2)cnc1C` [Example 125, 1-[2-(4-{[(5,6-dimethyl-3-pyridinyl)methyl]amino}-1-piperidinyl)ethyl]-7-fluoro-1,5-naphthyridin-2(1H)-one] gave an MIC not above 2.4 µg/mL.
The same measure, in the same setting: the same measure for `Cc1ncc(CN[C@H]2CCN(CCn3c(=O)ccc4ncc(F)cc43)C[C@H]2O)cc1F` [Example 128, 7-fluoro-1-[2-((3R,4S)-4-{[(5-fluoro-6-methyl-3-pyridinyl)methyl]amino}-3-hydroxy-1-piperidinyl)ethyl]-1,5-naphthyridin-2(1H)-one]: not above 2.4 µg/mL.
Same read-out and setting: with `Cc1ncc(CN[C@H]2CCN(CCn3c(=O)ccc4ncc(F)cc43)C[C@H]2O)cc1Br` [Example 130, 1-[2-((3R,4S)-4-{[(5-bromo-6-methyl-3-pyridinyl)methyl]amino}-3-hydroxy-1-piperidinyl)ethyl]-7-fluoro-1,5-naphthyridin-2(1H)-one] the figure was not above 2.4 µg/mL.
Still for that read-out and setting: the same measure for `CC1(NCc2ccc(C(F)(F)F)nc2)CCN(CCn2c(=O)ccc3ncc(F)cc32)CC1` [Example 131, 7-fluoro-1-{2-[4-methyl-4-({[6-(trifluoromethyl)-3-pyridinyl]methyl}amino)-1-piperidinyl]ethyl}-1,5-naphthyridin-2(1H)-one]: not above 2.4 µg/mL.
Take `COc1cnc2ccc(=O)n(CCN3CCC(C)(NCc4ccc(Cl)c(Cl)c4)CC3)c2c1` [Example 132]: the MIC was not above 2.4 µg/mL.

A further test relates to gram-positive organisms i) Staphylococcus aureus, ii) Streptococcus pneumoniae, iii) Enterococcus faecalis and gram-negative organisms iv) Haemophilus …. Nature of the test: General antimicrobial activity assay (whole-cell, CLSI broth microdilution, MIC). The conditions noted are these: organisms i)-vi) of the antimicrobial activity assay. The class given is cell-based. How it is done: (§1) General Antimicrobial Activity Assay
(§2) Whole-cell antimicrobial activity was determined by broth microdilution using the Clinical and Laboratory Standards Institute (CLSI) recommended procedure, Document M7-A7, “Methods for Dilution Susceptibility Tests for Bacteria that Grow Aerobically”. The compounds were tested in serial two-fold dilutions ranging from 0.016 to 64 μg/mL.
(§3) Compounds were evaluated against gram-positive organisms, selected from i) Staphylococcus aureus, ii) Streptococcus pneumoniae, and iii) Enterococcus faecalis. Two compounds were additionally evaluated against Streptococcus pyogenes, and Enterococcus faecium.
(§4) In addition, compounds were evaluated against gram-negative organisms selected from iv) Haemophilus influenzae, v) Moraxella catarrhalis and vi) Escherichia coll. Two compounds were additionally evaluated against Pseudomonas aeruginosa, Proteus mirabilis, Enterobacter cloacae, Enterobacter aerogenes, Klebsiella pneumoniae and Stenotrophomonas maltophilia.
(§5) The minimum inhibitory concentration (MIC) was determined as the lowest concentration of compound that inhibited visible growth. A mirror reader was used to assist in determining the MIC endpoint.
(Dilution methods test growth across graded concentrations, often in twofold steps.)
As to `O=c1ccc2ncccc2n1CCN1CCC(NCc2cc(Cl)cc(Cl)c2)CC1` [Example 58, 1-[2-(4-{[(3,5-dichlorophenyl)methyl]amino}-1-piperidinyl)ethyl]-1,5-naphthyridin-2(1H)-one], the “activity against organisms i)-vi)” value was “no activity”.

Tested on in another test: not listed separately
The test is described as above. The format is cell-based. The conditions noted are these: against a strain of at least one of the organisms listed; broth microdilution, 0.016 to 64 μg/mL. How it is done:
as §1, §2, §3, §4, §5
In turn, `O=c1ccc2ncc(F)cc2n1CCN1CCC(NCc2ccc(F)cc2)CC1` [Example 14, 7-Fluoro-1-[2-(4-{[(4-fluorophenyl)methyl]amino}-1-piperidinyl)ethyl]-1,5-naphthyridin-2(1H)-one] returned an MIC of 4 µg/mL (≈ 10 µM).
`O=c1ccc2ncccc2n1CCN1CCC(NCc2cccc(Cl)c2)CC1` [Example 57, 1-[2-(4-{[(3-chlorophenyl)methyl]amino}-1-piperidinyl)ethyl]-1,5-naphthyridin-2(1H)-one] returned an MIC of 4 µg/mL (≈ 10.1 µM).
As to `O=c1ccc2ncc(F)cc2n1CCN1CCC(NCc2nc(Br)cs2)CC1` [Example 60, 1-[2-(4-{[(4-bromo-1,3-thiazol-2-yl)methyl]amino}-1-piperidinyl)ethyl]-7-fluoro-1,5-naphthyridin-2(1H)-one], the MIC was 32 µg/mL (≈ 68.6 µM).
Still for that read-out and setting: with `Cc1ncc(CNC2CCN(CCn3c(=O)ccc4ncc(F)cc43)CC2)[nH]1.O=C(O)C(F)(F)F` [Example 119, 7-fluoro-1-[2-(4-{[(2-methyl-1H-imidazol-4-yl)methyl]amino}-1-piperidinyl)ethyl]-1,5-naphthyridin-2(1H)-one trifluoroacetate] the figure was more than 64 µg/mL; with `Cc1ncc(CN[C@H]2CCN(CCn3c(=O)ccc4ncc(F)cc43)C[C@H]2O)cc1F` [Example 128, 7-fluoro-1-[2-((3R,4S)-4-{[(5-fluoro-6-methyl-3-pyridinyl)methyl]amino}-3-hydroxy-1-piperidinyl)ethyl]-1,5-naphthyridin-2(1H)-one], 32 µg/mL (≈ 74.5 µM).
